Here are results for 1 compound from publication PMC5343058 (The Korean Journal of Physiology & Pharmacology : Official …, 2017).

The term inhibition denotes the drop in the measured response relative to a control, in per cent.

The target of this experiment is T1, hSlo3+hLRRC52 (Homo sapiens, UniProt A8MYU2).
T1 sequence (A8MYU2 1-1149): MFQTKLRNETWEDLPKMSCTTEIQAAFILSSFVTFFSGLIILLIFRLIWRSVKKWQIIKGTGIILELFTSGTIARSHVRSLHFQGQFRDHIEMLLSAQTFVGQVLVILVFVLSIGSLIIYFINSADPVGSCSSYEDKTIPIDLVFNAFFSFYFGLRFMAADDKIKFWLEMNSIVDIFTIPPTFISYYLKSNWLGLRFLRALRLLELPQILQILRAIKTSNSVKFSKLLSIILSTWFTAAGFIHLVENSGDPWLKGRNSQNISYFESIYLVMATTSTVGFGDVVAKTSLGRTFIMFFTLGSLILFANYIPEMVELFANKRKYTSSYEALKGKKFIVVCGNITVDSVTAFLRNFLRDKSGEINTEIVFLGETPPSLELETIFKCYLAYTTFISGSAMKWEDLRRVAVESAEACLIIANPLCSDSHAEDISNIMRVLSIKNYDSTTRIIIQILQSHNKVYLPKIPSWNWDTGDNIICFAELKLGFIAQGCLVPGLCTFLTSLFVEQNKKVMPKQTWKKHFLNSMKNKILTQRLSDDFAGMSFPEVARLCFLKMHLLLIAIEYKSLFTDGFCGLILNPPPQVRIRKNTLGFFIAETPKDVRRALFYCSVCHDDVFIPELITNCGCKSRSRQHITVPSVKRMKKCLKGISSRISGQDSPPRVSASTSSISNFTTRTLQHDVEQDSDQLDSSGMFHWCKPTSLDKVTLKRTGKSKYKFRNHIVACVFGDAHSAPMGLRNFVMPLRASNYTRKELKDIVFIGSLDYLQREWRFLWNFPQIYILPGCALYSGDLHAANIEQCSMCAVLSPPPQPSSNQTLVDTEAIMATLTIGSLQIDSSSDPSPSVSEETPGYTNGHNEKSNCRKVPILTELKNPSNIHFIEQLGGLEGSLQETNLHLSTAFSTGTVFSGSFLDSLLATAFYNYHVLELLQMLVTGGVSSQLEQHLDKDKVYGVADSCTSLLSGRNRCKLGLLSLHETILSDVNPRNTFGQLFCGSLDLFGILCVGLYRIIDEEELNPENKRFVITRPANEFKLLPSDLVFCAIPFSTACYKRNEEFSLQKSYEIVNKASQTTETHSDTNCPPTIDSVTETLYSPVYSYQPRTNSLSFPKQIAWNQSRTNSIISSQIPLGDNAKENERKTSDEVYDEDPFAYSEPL
T1 sequence (Q8N7C0 24-313 partner): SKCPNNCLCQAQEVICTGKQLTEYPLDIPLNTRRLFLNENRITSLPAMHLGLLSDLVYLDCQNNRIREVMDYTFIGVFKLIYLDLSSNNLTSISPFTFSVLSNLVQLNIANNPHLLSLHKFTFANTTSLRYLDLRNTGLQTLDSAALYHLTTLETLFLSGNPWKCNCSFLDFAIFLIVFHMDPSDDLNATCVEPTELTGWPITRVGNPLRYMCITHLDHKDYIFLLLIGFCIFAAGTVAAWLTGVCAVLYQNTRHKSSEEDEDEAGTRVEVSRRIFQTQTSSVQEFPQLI
Briefly: whole-cell patch clamp, HEK293, voltage ramp. The format is cell-based. The note with it: HEK293, read-out: % inhibition at 20 mM. For orientation: The patch-clamp technique gives a direct electrical read-out from membranes.

Regarding `CC[N+](CC)(CC)CC` [TEA], the inhibition at 20000 µM is 41 ± 5.19%.
